The values below come from ChEMBL document CHEMBL5728788, “Inhibitors of dihydroceramide desaturase for treating disease” (2021).

The target in the test is T1, Sphingolipid delta(4)-desaturase DES1 (Homo sapiens, UniProt O15121).
T1 sequence (O15121 whole entry): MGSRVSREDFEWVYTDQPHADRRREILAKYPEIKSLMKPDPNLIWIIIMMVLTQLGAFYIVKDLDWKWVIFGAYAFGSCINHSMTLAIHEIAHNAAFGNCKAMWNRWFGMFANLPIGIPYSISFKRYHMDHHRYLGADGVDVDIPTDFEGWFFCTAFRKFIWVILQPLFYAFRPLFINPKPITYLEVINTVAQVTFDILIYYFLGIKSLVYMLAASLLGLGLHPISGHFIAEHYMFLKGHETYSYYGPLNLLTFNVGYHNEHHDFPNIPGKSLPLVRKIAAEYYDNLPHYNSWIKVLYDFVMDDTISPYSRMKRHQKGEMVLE
In words: Des1 Activity Assays: Jurkat clone E6-1 cells were grown and then seeded at 10^6 cells/mL in a 96-well plate (400 μL in each well. The cells were administered 100 μL of cell culture media containing 50-μM NBD-C6-dihydroceramide (Des1 substrate), affording a final concentration of substrate of 10 μM. The cells were incubated with substrate at 4° C. for 30 minutes. Following the incubation at 4° C., the cell suspension was centrifuged at 1200 rpm for 3 minutes, and the cell pellet is resuspended in 400 μL of fresh media containing various concentrations of either fenretinide (known Des1 inhibitor control compound) or test article. The final concentrations of control compound and test compounds were tested in a range from 0-10 μM. The cells and compounds were incubated at 37° C. for 3 hours. Following the 3-hour incubation, the plate was centrifuged at 2500 g for 3 minutes at 4° C., followed by collection and transfer of 200 μL of the supernatant to a new 96-well plate with 300 μL of methanol an containing appropriate internal standards for liquid chromatography/tandem mass spectroscopy (LC/MS/MS) analysis (internal standard: 500 nM labetalol and 100 nM alprazolam). The samples were vortexed for 2 minutes followed by centrifugation at 3,220 g for 20 minutes. Following centrifugation, 200 μL of the supernatant was transferred to a new 96-well plate for LC-MS/MS analysis to determine the amount of NBD-C6-ceramide (Des1 product) produced. The assay was typically performed in duplicate. A reduction of at least 30% compared to vehicle control (0 μM test article) is indicative of an active compound, and a reduction of 75% compared to vehicle control is preferred. In kind it is cell-based.

`O=C(CC1CCN(c2ccc(Cl)cn2)CC1)Nc1ccc(O)cn1` yielded an IC50 of 3.9 nM. In other words, the single-digit nanomolar range.

With `O=C(Cc1ccccc1)Nc1ccc(O)cn1`, the IC50 amounted to 4500 nM.

`O=C(Nc1ccc(O)cn1)c1ccc(-c2cccnc2)cc1` registered an IC50 of 130 nM.

In general, IC50 refers to the concentration at which inhibition is half-maximal. A lower IC50 goes with higher potency.
